# Key:
# VprBP = molecular target: T1, VprBP (Homo sapiens, UniProt Q9Y4B6); assay: In vitro kinase assay, VprBP (recombinant VprBP and H2A; kinase panel); assay type: biochemical; set-up: Inhibition of VprBP and H2AT120p in in vitro kinase assay (library screen): dose or concentration left out as unconfirmed
# T1 construct: His (N); made in house; host or cells: Sf9 insect cells (baculovirus)
# Procedure: Recombinant mononucleosomes and nucleosome arrays were reconstituted using recombinant histone octamers as recently described (Jaskelioff, M. et al. (2000) Mol. Cell. Biol. 20:3058-3068; Robinson, P. J. et al. (2008) J. Mol. Biol. 381:816-825). For kinase assays, recombinant VprBP was incubated with free histones ([…]) or reconstituted nucleosomes ([…]) in kinase buffer (50 mM Tris-HCl [pH 7.5], 20 mM EGTA, 10 mM MgCl2, 1 mM DTT, and 1 mM b-glycerophosphate) containing 10 mCi of [g-32P] ATP and 4 mM ATP for 30 min at 30_C. Proteins from each reaction were separated by SDS-PAGE, Coomassie blue stained, dried, and visualized by autoradiography. To create VprBP inhibitors, a collection of 5,000 compounds was screened in the same kinase assays at a final concentration […]. In vitro transcription assays were as described (Kim, K. et al. (2012) Mol. Cell. Biol. 32:783-796), except that G5ML-601 nucleosome arrays (100 ng) and Gal4-VP16 (15 ng) were used for the reactions. Recombinant VprBP (25 or 50 ng) and ATP (10 mM) were added before p300 (20 ng) and AcCoA (10 mM).
# ATM = ATM (Homo sapiens, UniProt Q13315); assay: Kinase selectivity panel; assay type: biochemical
# AURKB = AURKB (Homo sapiens, UniProt Q96GD4); assay: Kinase selectivity panel; assay type: biochemical
# Sequence of AURKB (Q96GD4 whole entry): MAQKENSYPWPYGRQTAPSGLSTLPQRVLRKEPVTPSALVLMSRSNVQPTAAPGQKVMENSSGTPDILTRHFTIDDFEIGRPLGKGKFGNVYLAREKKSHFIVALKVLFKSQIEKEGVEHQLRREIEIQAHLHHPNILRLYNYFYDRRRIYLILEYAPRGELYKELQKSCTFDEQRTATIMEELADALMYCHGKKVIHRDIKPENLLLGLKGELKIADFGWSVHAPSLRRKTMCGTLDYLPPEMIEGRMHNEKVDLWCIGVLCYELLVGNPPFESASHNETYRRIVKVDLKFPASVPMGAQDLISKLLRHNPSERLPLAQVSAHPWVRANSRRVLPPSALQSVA
# CHK1 = CHK1 (Homo sapiens, UniProt O14757); assay: Kinase selectivity panel; assay type: biochemical
# CSK1E = CSK1E (Homo sapiens, UniProt P49674); assay: Kinase selectivity panel; assay type: biochemical
# Sequence of CSK1E (P49674 whole entry): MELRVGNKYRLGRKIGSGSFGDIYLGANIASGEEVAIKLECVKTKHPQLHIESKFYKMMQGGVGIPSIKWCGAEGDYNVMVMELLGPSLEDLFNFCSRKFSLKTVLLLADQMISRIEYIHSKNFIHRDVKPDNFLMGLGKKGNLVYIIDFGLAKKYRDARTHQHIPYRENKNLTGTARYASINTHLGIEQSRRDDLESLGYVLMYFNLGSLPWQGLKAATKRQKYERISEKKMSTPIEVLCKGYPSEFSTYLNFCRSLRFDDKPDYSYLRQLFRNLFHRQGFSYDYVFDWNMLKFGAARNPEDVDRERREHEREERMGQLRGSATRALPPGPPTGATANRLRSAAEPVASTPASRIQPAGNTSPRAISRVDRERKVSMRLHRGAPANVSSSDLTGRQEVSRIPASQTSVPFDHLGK
# DYRK1 = DYRK1 (Homo sapiens, UniProt Q13627); assay: Kinase selectivity panel; assay type: biochemical
# EEF2K = EEF2K (Homo sapiens, UniProt O00418); assay: Kinase selectivity panel; assay type: biochemical
# Sequence of EEF2K (O00418 whole entry): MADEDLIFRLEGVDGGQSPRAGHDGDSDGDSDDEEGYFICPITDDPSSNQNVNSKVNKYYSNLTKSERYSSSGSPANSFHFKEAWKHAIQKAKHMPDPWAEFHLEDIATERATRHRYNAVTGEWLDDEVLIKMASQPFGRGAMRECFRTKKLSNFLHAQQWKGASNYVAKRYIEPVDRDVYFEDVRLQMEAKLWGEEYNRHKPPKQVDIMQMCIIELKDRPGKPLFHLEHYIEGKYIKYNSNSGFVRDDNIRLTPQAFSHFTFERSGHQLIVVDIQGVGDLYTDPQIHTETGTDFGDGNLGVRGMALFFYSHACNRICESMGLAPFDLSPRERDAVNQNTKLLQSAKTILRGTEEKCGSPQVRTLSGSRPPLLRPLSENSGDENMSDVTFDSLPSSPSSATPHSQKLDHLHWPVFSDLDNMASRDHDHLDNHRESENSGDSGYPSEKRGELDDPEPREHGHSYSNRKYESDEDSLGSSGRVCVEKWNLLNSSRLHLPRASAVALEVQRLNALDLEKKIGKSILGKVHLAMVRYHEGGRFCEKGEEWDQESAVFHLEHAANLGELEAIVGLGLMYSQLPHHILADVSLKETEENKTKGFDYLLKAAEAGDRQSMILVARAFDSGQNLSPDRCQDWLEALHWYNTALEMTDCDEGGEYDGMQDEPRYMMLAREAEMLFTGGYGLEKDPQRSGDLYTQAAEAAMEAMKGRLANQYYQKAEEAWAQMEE
# GSK3β = GSK3β (Homo sapiens, UniProt P49841); assay: Kinase selectivity panel; assay type: biochemical
# Sequence of GSK3β (P49841 whole entry): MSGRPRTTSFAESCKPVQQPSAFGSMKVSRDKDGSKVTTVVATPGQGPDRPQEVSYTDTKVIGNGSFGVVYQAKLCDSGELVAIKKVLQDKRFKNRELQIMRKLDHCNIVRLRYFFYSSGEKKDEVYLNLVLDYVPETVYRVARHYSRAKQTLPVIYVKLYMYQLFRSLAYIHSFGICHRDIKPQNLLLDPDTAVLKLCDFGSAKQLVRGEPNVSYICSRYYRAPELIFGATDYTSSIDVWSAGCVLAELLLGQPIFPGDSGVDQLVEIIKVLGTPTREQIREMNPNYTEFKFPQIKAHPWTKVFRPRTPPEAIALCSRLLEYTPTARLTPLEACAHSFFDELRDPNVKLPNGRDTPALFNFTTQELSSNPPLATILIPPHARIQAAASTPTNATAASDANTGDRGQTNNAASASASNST
# PKN2 = PKN2 (Homo sapiens, UniProt Q16513); assay: Kinase selectivity panel; assay type: biochemical
# Sequence of PKN2 (Q16513 whole entry): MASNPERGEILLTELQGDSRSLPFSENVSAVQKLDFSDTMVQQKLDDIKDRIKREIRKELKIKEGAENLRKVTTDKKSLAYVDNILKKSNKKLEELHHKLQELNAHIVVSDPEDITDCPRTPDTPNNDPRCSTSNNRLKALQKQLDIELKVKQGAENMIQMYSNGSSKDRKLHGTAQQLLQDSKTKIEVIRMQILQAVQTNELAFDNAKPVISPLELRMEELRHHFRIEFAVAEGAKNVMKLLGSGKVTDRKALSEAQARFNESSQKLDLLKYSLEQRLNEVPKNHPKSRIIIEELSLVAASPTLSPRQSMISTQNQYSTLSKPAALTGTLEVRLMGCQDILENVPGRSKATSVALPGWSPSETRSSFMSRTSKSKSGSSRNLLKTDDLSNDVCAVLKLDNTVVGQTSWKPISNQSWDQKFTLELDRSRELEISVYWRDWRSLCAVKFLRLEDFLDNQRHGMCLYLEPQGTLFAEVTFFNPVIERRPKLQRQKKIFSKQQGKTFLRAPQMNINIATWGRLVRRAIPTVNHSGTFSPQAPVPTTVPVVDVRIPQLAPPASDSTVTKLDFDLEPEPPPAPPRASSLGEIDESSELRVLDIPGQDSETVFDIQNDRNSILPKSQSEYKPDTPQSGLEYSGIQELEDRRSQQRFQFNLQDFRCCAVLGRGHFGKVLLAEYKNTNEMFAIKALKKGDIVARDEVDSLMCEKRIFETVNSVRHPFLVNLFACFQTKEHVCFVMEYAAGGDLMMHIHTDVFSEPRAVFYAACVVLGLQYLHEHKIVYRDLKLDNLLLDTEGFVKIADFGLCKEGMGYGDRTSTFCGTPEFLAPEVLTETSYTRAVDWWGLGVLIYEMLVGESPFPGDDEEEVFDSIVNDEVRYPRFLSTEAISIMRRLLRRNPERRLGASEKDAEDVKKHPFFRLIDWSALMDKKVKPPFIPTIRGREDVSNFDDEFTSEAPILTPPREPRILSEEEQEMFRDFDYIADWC
# STK25 = STK25 (Homo sapiens, UniProt O00506); assay: Kinase selectivity panel; assay type: biochemical
# Sequence of STK25 (O00506 whole entry): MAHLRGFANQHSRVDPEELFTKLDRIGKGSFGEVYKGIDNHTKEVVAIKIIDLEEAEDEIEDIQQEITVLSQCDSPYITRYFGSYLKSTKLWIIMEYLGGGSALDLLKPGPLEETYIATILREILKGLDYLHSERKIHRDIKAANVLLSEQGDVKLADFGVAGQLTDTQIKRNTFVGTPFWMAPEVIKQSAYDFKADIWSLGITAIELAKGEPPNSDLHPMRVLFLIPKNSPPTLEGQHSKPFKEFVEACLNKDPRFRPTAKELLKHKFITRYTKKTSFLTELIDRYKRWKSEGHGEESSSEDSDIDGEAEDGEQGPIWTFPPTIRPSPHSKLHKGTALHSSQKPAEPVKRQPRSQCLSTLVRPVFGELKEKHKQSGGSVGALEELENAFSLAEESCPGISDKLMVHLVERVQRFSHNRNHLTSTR
# DU145 tumor xenografts = DU145 tumor xenografts in nude mice; assay type: in vivo
# Procedure: All animal experiments were performed according to protocols approved by the Institutional Animal Care and Use Committee. Tumor xenografts were established by subcutaneous injection of 1 3 107 DU145 cells into 8-weekold female nude mice (n=8). At day 5 after injection, the mice bearing DU145 tumor xenografts were treated with twice-weekly i.p. injections of either DMSO or B32B3 at a dose of 5 mg/kg throughout the duration of the experiment. Tumor dimension was measured by calipers twice a week, and tumor mass was calculated as described (Heo, K. et al. (2012) Oncogene 32:2510-2520). The mice were killed by asphyxiation with CO2, and tumors were excised and weighed 25 day after the cell injection. To analyze the H2AT120p, formalin-fixed and paraffin-embedded sections ([…]) from DU145 tumor xenografts were subject to immunohistochemistry. Animal studies were conducted under approved institutional protocols.
# [1] = Mouse pharmacokinetics of B32B3; assay type: in vivo; conditions: plasma, dose of 5 mg/kg in mice
# Procedure: Mouse pharmacokinetic study was carried out using mice (n=5) that were fasted for 12 h prior to and 2 h after dosing with B32B3 (5 mg/kg). Blood samples were collected from orbital sinus at 10, 30, 60, 120, 240, and 480 min post dose. The plasma was separated from blood samples by centrifugation and analyzed in the Agilent 1200 HPLC system coupled to Agilent 6460A QQQ mass spectrophotometer. The plasma concentration-time data were analyzed by noncompartmental analysis using WinNonlin version 4.1 (Pharsight).
# T1 sequence (Q9Y4B6 whole entry): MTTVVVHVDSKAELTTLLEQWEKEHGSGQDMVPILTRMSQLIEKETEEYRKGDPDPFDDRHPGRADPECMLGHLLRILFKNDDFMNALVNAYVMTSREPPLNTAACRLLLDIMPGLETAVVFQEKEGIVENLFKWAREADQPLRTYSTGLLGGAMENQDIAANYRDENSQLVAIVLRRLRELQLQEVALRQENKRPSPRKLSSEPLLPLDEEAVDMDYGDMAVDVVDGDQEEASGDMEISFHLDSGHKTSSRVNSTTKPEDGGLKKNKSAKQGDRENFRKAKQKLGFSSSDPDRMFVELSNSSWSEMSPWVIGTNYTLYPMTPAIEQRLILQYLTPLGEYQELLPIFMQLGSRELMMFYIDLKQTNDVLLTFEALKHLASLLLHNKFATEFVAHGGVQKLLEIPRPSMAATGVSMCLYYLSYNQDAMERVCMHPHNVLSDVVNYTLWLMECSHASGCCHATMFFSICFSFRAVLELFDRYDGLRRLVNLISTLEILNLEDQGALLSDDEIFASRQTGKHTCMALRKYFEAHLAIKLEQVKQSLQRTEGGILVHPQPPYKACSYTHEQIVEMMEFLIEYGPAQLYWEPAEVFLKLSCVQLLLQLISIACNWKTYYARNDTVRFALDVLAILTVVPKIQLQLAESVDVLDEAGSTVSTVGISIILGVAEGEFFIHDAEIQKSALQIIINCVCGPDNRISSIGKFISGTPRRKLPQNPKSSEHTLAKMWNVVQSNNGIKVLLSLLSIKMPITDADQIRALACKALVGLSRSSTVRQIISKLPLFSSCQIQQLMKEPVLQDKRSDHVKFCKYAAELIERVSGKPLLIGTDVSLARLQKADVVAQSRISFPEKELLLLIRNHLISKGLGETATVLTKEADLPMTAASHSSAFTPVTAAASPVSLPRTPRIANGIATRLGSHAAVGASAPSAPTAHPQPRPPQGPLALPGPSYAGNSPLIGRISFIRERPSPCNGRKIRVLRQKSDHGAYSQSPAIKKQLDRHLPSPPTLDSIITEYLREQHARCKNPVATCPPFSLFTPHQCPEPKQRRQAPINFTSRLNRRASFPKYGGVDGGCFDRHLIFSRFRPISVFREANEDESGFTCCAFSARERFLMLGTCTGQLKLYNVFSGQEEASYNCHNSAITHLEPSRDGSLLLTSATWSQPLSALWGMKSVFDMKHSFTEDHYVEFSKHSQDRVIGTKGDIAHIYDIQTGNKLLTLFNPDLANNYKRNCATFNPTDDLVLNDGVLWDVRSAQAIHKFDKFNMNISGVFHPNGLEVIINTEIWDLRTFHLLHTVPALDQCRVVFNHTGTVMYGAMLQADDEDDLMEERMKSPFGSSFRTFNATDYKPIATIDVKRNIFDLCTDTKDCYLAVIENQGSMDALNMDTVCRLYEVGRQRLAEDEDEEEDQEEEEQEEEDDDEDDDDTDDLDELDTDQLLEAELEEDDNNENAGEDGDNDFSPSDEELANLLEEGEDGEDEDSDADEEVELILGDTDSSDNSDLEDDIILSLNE
structure (smiles),measurement,setting,value
c1ccc2c(CNNc3ncnc4sc5c(c34)CCCC5)c[nH]c2c1 [B32B3],Selectivity for VprBP over 33 other kinases,VprBP; panel of 33 human kinases,greater than 100 fold
same,IC50,"VprBP; panel of 33 human kinases, read-out: IC50 for VprBP as stated in text",0.6 µM
same,Inhibition of VprBP and H2AT120p in in vitro kinase assay (library screen),"VprBP; recombinant H2A and VprBP, western blotting with H2AT120p antibody",inhibited VprBP and decreased H2AT120p
same,IC50,ATM,> 10 µM
same,IC50,AURKB,> 10 µM
same,IC50,CHK1,> 10 µM
same,IC50,CSK1E,> 10 µM
same,IC50,DYRK1,> 10 µM
same,IC50,EEF2K,> 10 µM
same,IC50,GSK3β,> 10 µM
same,IC50,PKN2,> 10 µM
same,IC50,STK25,> 10 µM
same,Tumor growth inhibition,"DU145 tumor xenografts; 5 mg/kg i.p. twice a week over 3 weeks, calculated the day after the last treatment",70%-75%
same,Body weight loss during treatment,DU145 tumor xenografts; 5 mg/kg i.p. twice weekly,did not cause any significant weight loss
same,Tolerability in mice,DU145 tumor xenografts; 5 mg/kg i.p. twice weekly,well tolerated
same,Levels of H2AT120p in xenograft tumors (immunohistochemistry),DU145 tumor xenografts; compared to DMSO-treated controls,greatly decreased
same,Cmax,[1],1000 nM
